Test results: patent US20060031949A1, “Inducible expression systems for modulating the expression of target genes in eukaryotic cells and non-human animals” (priority 2004, published 2006)

Columns and labels:
[1] = test system: Hif1 dependent transcriptional activity; experiment: Hif1 reporter (1×HRE) luciferase activity in D54_Hif clones; format: cell-based, human; settings: D54_Hif25 cells, 1 μg/ml doxycycline, hypoxia
Description: (§1) Cells were incubated in the presence or absence of 1 μg/ml doxycycline. After thirty-six hours, cells were either untreated (N) or subjected to hypoxia treatment (H) for an additional sixteen hours. The cells were lysed and analyzed by western blotting using antibodies against Hif1α (upper panel) or Hif1β (lower panel). […] Cells were transfected with either pGL3-control/pRL-TK (left panel) or 1×HRE/pRL-TK plasmids (right panel) in the presence or absence of 1 μg/ml doxycycline. Thirty-six hours following transfection, cells were subjected to hypoxia treatment. Luciferase activities were determined sixteen hours after hypoxia treatment. […] Cells were incubated in the presence or absence of 1 μg/ml doxycycline. After thirty-six hours, cells were either untreated (N) or subjected to hypoxia treatment (H) for an additional sixteen hours. Total RNA were prepared and used in quantitative PCR for analyzing the level of the indicated genes.
(§2) To assess the potential therapeutic effect of Hif1 inhibition, we established stable cell lines from D54MG parental cells that express an shRNA against Hif1α under the control of doxycycline. A panel of 8 shRNAs against Hif1α was first screened for their abilities to knockdown the target (data not shown), and the best shRNA was selected for the creation of Hif1α knockdown cell lines. […]

Hif1α [2] = experiment: Hif1α protein level (western) in D54_Hif clones with or without doxycycline; format: cell-based, human; settings: D54_Hif18 cells, 1 μg/ml doxycycline
Description: as §1, §2

Hif1α [3] = experiment: Hif1α knockdown in subcutaneous xenograft tumors (QPCR, IHC), doxycycline in drinking water; format: in vivo, SCID mice; settings: D54_Hif25 tumors, 1 mg/ml doxycycline in drinking water for 3 days
Description: Mice bearing 200-300 mm^3 tumors were supplied with doxycycline (1 mg/ml) for 3, 6, 9 or 12 days. Tumors were collected at the end of treatment and Hif1α mRNA levels were determined by QPCR. Tumors from mice without Dox treatment were used as controls. […] Hif1α mRNA level was determined by QPCR. […] The Hif1α expression level was examined by IHC, and quantified using AxioVision 4 (Zeiss).
To determine whether target knockdown can be induced in xenograft tumors, the D54_Hif25 cells were injected subcutaneously into SCID mice. After tumors reached an average size of 200 mm^3, the mice were supplied with drinking water containing 1 mg/ml doxycycline to induce the expression of Hif1α shRNA. After treating the mice with doxycycline for 3, 6, 9, or 12 days, the tumors were collected and analyzed by QPCR to determine the Hif1α messenger level. […] Examination of the tumor samples by immunohistochemistry indicated a clear reduction of the Hif1α protein from day 3 onward (data not shown).
To determine whether the ability to induce target knockdown would be impaired over long-term doxycycline treatment or when the tumors reach a very large size, further analysis was performed of the knockdown of Hif1α in tumors from mice treated with doxycycline for 45 days. The average tumor size at the end of treatment was 2000 mm^3. […]

human Hif1α = experiment: Western analysis of Hif1α protein in HeLaTREx stable clones carrying 2O2_Hif1, doxycycline induction; format: cell-based
Description: Cells were directly lysed on 6-well plates in 1× Laemmli sample buffer. Proteins were separated by SDS-PAGE, transferred to PVDF membrane, and western blotting was performed using antibodies against Chk1 (1:200, Santa Crutz Biotechnology, Santa Crutz, Calif. 95060), HIF-1 alpha (1:500, BD Bioscience, Palo Alto, Calif. 94303) or tetR (1:2000, Mo Bi Tec, Germany).
To determine whether the 2O2 promoter retains the ability to respond to doxycycline after integrating into chromosomes, the inventors used a commercial tetR expressing cell line, HeLaTREx, (Invitrogen Corp., Carlsbad, Calif. 92008) to establish stable clones that carried the 2O2 promoter linked to an shRNA targeting human Hif1α (2O2_Hif1).
Using the best-regulated 2O2_Hif1 clone (Hif1-7), the inventors further characterized the time and dose dependency of doxycycline induction of the 2O2 expression system. […] The doxycycline concentration that is required for maximal induction of the 2O2 system was determined in a dose-response experiment.

tyrosinase = experiment: Tyrosinase knockdown mice by pronuclear injection of 2O2 promoter transgenes; format: in vivo; settings: mice without tetR expression
Description: Pronuclear injection is a well-established method for creating transgenic animals. In this approach, a DNA fragment (the transgene) is injected into the pronuclear stage of fertilized eggs, and the injected eggs are implanted into pseudopregnant animals. In a typical experiment, 50-80 eggs are injected in which half of the injected eggs will survive to generate neonates and 5%-20% of the neonates will contain the transgene.
Tyrosinase was selected as a target to knockdown. Tyrosinase is a key enzyme in melanin production, and the knockdown of tyrosinase in mice will generate an apparent coat color change.
To determine whether a modified pol III dependent promoter, such as the 2O2 promoter, is suitable for the creation of knockdown animals, transgenes were created that used the 2O2 promoters to express the two best shRNAs against tyrosinase (2O2-Tyr731 (SEQ ID NO: 46) and 2O2-Tyr338 (SEQ ID NO: 47)). These transgenes are shown below. The bold characters represent the shRNA sequences and the underscored characters represent the promoter sequences. […] In mice without tetR expression, the 2O2 promoter is expected to be constitutively active.

Molecule: C[C@H]1c2cccc(O)c2C(=O)C2=C(O)[C@]3(O)C(=O)C(C(N)=O)=C(O)[C@@H](N(C)C)[C@@H]3[C@@H](O)[C@@H]21 [doxycycline]
- reduction of the Hif1 reporter activity [1]: 80%
- reduction of the Hif1α protein (Hif1α [2]): 80%
- reduction of the Hif1α mRNA in tumors (Hif1α [3]): 80%
- inhibition of Hif-1 protein (human Hif1α; clone Hif1-7, 0.1 ng/ml of doxycycline): more than 90%
- inhibition of Hif-1 protein (human Hif1α; clone Hif1-7, 24 hours after doxycycline treatment): more than 90%
- doxycycline concentration at which maximal inhibition of Hif1α protein was reached (human Hif1α; clone Hif1-7, dose-response experiment): 10 ng/mL

B1: 2O2-Tyr731: transgene using the 2O2 promoter to express an shRNA against tyrosinase (SEQ ID NO: 46) (nucleic acid)
DNA: GAATTCCAGGCAAAACGCACCACGTGACGGAGCGTGACCGCGCGCCGAGCGCGCGCCAAGGTCGGGCAGGAAGAGGGCCTATTTCCCATGATTCCATCATATTTGCATATACGATACAAGGCTGTTAGAGAGATAATTAGAATTAATTCGACTGTAAACACAAAGATATTAGTATAAAATACGTGACGTAGAAAGTAATAATTTCTTGGGTAGTTTGCAGTTTTAAAATTATGTTTTAAAATGGACTATCATATGCTTACCGTAACTTGAAACTCCCTATCAGTGATAGAGATTATATATCTCCCTATCAGTGATAGAGACCGTGACATTTGCACAGATGATTCAAGAGATCATCTGTGCAAATGTCACTTTTTTAAGCTT
modifications: 2O2-Tyr731
- coat color of transgene-positive pups (tyrosinase; three of 20 pups carried the transgene): different degrees of coat color change

B2: 2O2-Tyr338: transgene using the 2O2 promoter to express an shRNA against tyrosinase (SEQ ID NO: 47) (nucleic acid)
DNA: GAATTCCAGGCAAAACGCACCACGTGACGGAGCGTGACCGCGCGCCGAGCGCGCGCCAAGGTCGGGCAGGAAGAGGGCCTATTTCCCATGATTCCATCATATTTGCATATACGATACAAGGCTGTTAGAGAGATAATTAGAATTAATTCGACTGTAAACACAAAGATATTAGTATAAAATACGTGACGTAGAAAGTAATAATTTCTTGGGTAGTTTGCAGTTTTAAAATTATGTTTTAAAATGGACTATCATATGCTTACCGTAACTTGAAACTCCCTATCAGTGATAGAGATTATATATCTCCCTATCAGTGATAGAGACCGGCAACTTCATGGGTTTCATTCAAGAGATGAAACCCATGAAGTTGCCTTTTTTAAGCTT
modifications: 2O2 promoter transgene; 2O2-Tyr338
- viability of transgene-positive embryos (tyrosinase; 40 pups without transgene, two dead embryos with it): embryonic lethality
